Where two headings read alike, the source gives them in different places. Each block holds one compound with its values, some of them ahead of it.
Experiments:
[1] = Boiling point (volatility) of aminoalkanol; type: physicochemical
Description: Also, to insure operational efficiency with minimal losses of the amino compound, the amino compound should have a relatively low volatility. […]
It can be seen that in each case the boiling points increase relative to the respective parent compound while the pKa remains constant.

pKa of aminoalkanol = type: physicochemical; settings: at 20° C.
[2] = pressure not stated; background; cited from earlier work
[3] = 15N NMR chemical shift as a means of determining selectivity to H2S removal; type: physicochemical; settings: 90% by wt. amine in 10% by wt. D2O, 35° C.; liquid ammonia at 25° C. as zero reference
Procedure: Another means for determining whether an amino compound is selective to H2 S removal is by measuring its 15N nuclear magnetic resonance (NMR) chemical shift. […] D2 O at 35° C. is measured by a spectrometer using liquid (neat) ammonia at 25° C. as a zero reference value. For example, N-(2-hydroxyethoxyethyl)pyrrolidine (HEEP) has a ^15 N NMR chemical shift value of δ+53.2 ppm whereas diethylmonoethanolamine (DEAE), N-methyl-N-tertiarybutylaminoethoxyethanoland methyldiethanolamine (MDEA) have ^15 N NMR chemical shift values of δ+43.7, δ+45.0 and δ+27.4 ppm, respectively.

SMILES: OCCOCCCN1CCCC1
- boiling point ([1]; at 20 mm): 140 °C
- pKa (pKa of aminoalkanol): 10.20

SMILES: CCN(CC)CCO [DEAE, diethylmonoethanolamine]
- boiling point [2]: 161 °C

SMILES: OCCCCN1CCCC1 [HBP, N-(4-hydroxybutyl) pyrrolidine]
- boiling point ([1]; at 2 mm): 95 °C
- pKa (pKa of aminoalkanol): 10.21

SMILES: OCCCN1CCCCC1 [HPPi, N-(3-hydroxypropyl)piperidine]
- boiling point ([1]; at 5 mm): 97 °C
- pKa (pKa of aminoalkanol): 10.2

SMILES: CN1CCCCC1CCO (stereo not drawn) [MHEPi, N-methyl-2-hydroxyethylpiperidine]
- boiling point ([1]; at 760 mm): 233 °C
- pKa (pKa of aminoalkanol): 9.90

Results, then the compound that gave them:

- boiling point ([1]; at 14 mm): 75 °C
- pKa (pKa of aminoalkanol): 10.20
SMILES: CC(O)CN1CCCC1 (stereo not drawn)

- boiling point ([1]; at 1 mm): 100 °C
- pKa (pKa of aminoalkanol): 10.20
SMILES: CC(O)COC(C)CN1CCCC1 (stereo not drawn)

- boiling point ([1]; at 7 mm): 98 °C
- pKa (pKa of aminoalkanol): 10.25
SMILES: CC(CCO)N1CCCC1 (stereo not drawn) [H2BP, N-(4-hydroxy-2-butyl)pyrrolidine]

- boiling point ([1]; at 5 mm): 110 °C
- 15N NMR chemical shift (δ+) [3]: 53.2 ppm
- pKa (pKa of aminoalkanol): 9.95
SMILES: OCCOCCN1CCCC1 [HEEP, N-(2-hydroxyethoxyethyl)pyrrolidine]

- boiling point ([1]; at 13 mm): 80 °C
- pKa (pKa of aminoalkanol): 9.95
SMILES: OCCN1CCCC1 [HEP, N-hydroxyethylpyrrolidine]

- boiling point ([1]; at 13 mm): 103 °C
- pKa (pKa of aminoalkanol): 10.21
SMILES: OCCCN1CCCC1 [HPP, N-(3-hydroxypropyl)pyrrolidine]

- boiling point ([1]; at 13 mm): 101 °C
- pKa (pKa of aminoalkanol): 10.20
SMILES: OCCCN1CCCC1 [drawing 3]

Source: patent US4483833A, “Process for selective removal of H2 S from mixtures containing H2 2 with heterocyclic tertiary aminoalkanols” (Exxon Research & Engineering Co., priority 1982, dated 1984)
